From ChEMBL document CHEMBL4765314, “Rational design and biological evaluation of gemfibrozil modified Xenopus GLP-1 derivatives as long-acting hypoglycemic agents” (Eur J Med Chem, 2020)
Calls of active or inactive are those of the source. The calls are words filed in the database; no cut-off is given here. Starred links: 1 amine or outer side, 2 acyl side, 3 side chain; linkers in the order of their positions; H or OH if unused. Residues, ends and D or L forms follow the SMILES beside them. Groups on a side chain read outwards from the residue. *: point of attachment. X1 = Cc1ccc(C)c(OCCCC(C)(C)C(=O)OCC(=O)NCCCCCCCCCC(NC(=O)COC(=O)C(C)(C)CCCOc2cc(C)ccc2C)C(=O)*)c1; γGlu = O=C(O)[C@H](CCC(=O)[*:2])N[*:1]

What was measured:
Mus musculus [1] = assay: Improvement in glucose tolerance in db/db mouse at 25 nmol/kg, sc administered once daily for 42 days by OGTT; format: functional, organism-based; settings: time 42.0 day
[2] = Hepatotoxicity in ICR mouse assessed as effect on aspartate aminotransferase level at 1000 nmol/kg, sc administered once daily for 2 weeks; format: toxicity, organism-based; settings: in vivo, 336 h
Mus musculus [3] = assay: Improvement in HbA1c level in db/db mouse at 25 nmol/kg, sc administered once daily for 21 days; format: functional, organism-based; settings: time 21.0 day
Mus musculus [4] = assay: Hypoglycemic activity in non-fasted sc dosed db/db mouse assessed as reduction in blood glucose treated 30 mins before glucose challenge and measured up to 48 hrs by OGTT method; format: functional, organism-based; settings: dose 25-100 nmol/kg, time min <=2910
Mus musculus [5] = assay: Gastric emptying in 6 hrs fasted ICR mouse assessed as reduction in blood paracetamol concentration at 25 nmol/kg, ip dosed 30 mins before paracetamol dosing measured up to 60 mins by LC-MS/MS analysis; format: functional, organism-based; settings: time 90.0 min
[6] = Half life in Sprague-Dawley rat at 50 nmol/kg, sc measured up to 24 hrs by LC-MS/MS analysis; format: ADME, organism-based; settings: in vivo
[7] = Inhibition of solid-phase gastric emptying in 12 hrs fasted ICR mouse assessed reduction in gastric emptying rate at 25 nmol/kg, ip allowed for food intake 1 hrs and measured after 4 hrs […]; format: functional; design: scale not given: the % may be the effect or the level left
Mus musculus [8] = assay: Reduction in body weight in C57BL/6 mouse model of diet induced obesity at 25 nmol/kg, sc administered once daily for 21 days relative to control; format: functional; design: scale not given: the % may be the effect or the level left; settings: time 21 day
Mus musculus [9] = assay: Reduction in body fat content in C57BL/6 mouse model of high-fat diet induced obesity at 25 nmol/kg, sc administered once daily for 21 days relative to control; format: functional; design: scale not given: the % may be the effect or the level left; settings: time 21 day
[10] = Hepatotoxicity in ICR mouse assessed as effect on alanine aminotransferase level at 1000 nmol/kg, sc administered once daily for 2 weeks; format: toxicity, organism-based; settings: in vivo, 336 h
Mus musculus [11] = assay: Hypoglycemic activity in db/db mouse assessed as improvement in glucose tolerance at 25 nmol/kg, ip dosed 30 mins before glucose challenge and measured up to 180 mins by OGTT method; format: functional, organism-based; settings: time 210.0 min
Mus musculus [12] = assay: Reduction in serum LDL level in C57BL/6 mouse model of high-fat diet induced obesity at 25 nmol/kg, sc administered once daily for 21 days; format: functional, organism-based; settings: time 21.0 day
Mus musculus [13] = assay: Hypoglycemic activity in normal chow diet fed C57BL/6 mouse assessed as fasting blood glucose at 25 nmol/kg, sc administered once daily for 21 days; format: functional, organism-based; settings: time 21.0 day
Mus musculus [14] = assay: Anorectic activity in non-fasted sc dosed db/db mouse assessed as reduction in food intake treated 30 mins before glucose challenge and measured up to 48 hrs; format: functional, organism-based; settings: time min <=2910
Mus musculus [15] = assay: Reduction in serum triglyceride in C57BL/6 mouse model of high-fat diet induced obesity at 25 nmol/kg, sc administered once daily for 21 days; format: functional, organism-based; settings: time 21.0 day
Mus musculus [16] = assay: Increase in serum HDL level in C57BL/6 mouse model of high-fat diet induced obesity at 25 nmol/kg, sc administered once daily for 21 days; format: functional, organism-based; settings: time 21.0 day
Mus musculus [17] = assay: Reduction in serum total cholesterol in C57BL/6 mouse model of high-fat diet induced obesity at 25 nmol/kg, sc administered once daily for 21 days; format: functional, organism-based; settings: time 21.0 day
Mus musculus [18] = assay: Hypoglycemic activity in 12 hrs fasted ICR mouse assessed as reduction in blood glucose level at 25 nmol/kg, ip dosed 30 mins before glucose challenge measured up to 120 mins by OGTT method; format: functional, organism-based; settings: time 150.0 min
[19] = Renal toxicity in ICR mouse assessed as effect on serum creatinine level at 1000 nmol/kg, sc administered once daily for 2 weeks; format: organism-based; settings: in vivo, 336 h
Mus musculus [20] = assay: Hypoglycemic activity in db/db mouse assessed as decrease in glucose excursion at 25 nmol/kg, ip dosed 30 mins before glucose challenge and measured up to 180 mins by OGTT method; format: functional, organism-based; settings: time 210.0 min
[21] = molecular target: Glucagon-like peptide 1 receptor (Homo sapiens, UniProt P43220); assay: Agonist activity at human GLP-1R expressed in HEK293 cells assessed as stimulation of cAMP accumulation incubated for 60 mins by HTRF assay; format: functional, cell-based
Sequence of Glucagon-like peptide 1 receptor (P43220 whole entry): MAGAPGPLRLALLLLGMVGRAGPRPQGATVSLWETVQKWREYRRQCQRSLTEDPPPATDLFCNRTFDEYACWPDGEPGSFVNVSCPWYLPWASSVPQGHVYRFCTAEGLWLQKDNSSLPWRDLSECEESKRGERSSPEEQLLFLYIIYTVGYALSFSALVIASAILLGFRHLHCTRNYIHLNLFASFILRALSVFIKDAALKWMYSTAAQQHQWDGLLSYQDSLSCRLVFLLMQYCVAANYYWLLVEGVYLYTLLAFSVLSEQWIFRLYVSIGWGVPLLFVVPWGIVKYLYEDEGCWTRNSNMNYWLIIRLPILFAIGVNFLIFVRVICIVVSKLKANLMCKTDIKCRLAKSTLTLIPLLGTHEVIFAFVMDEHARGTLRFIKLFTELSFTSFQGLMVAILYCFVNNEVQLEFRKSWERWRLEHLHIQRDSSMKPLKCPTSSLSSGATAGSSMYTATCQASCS

[22] = Stability in Sprague-Dawley rat plasma assessed as half life at 1000 ng/ml measured up to 48 hrs under shaking condition by LC-MS/MS analysis; format: ADME, cell-free
Mus musculus [23] = assay: Hypoglycemic activity in non-fasted db/db […] mouse assessed as increase in duration of time under normoglycemic state at 25 nmol/kg, sc by OGTT method relative to liraglutide; format: functional, organism-based
Mus musculus [24] = assay: Insulinotropic activity in db/db mouse assessed as improvement in plasma insulin level at 25 nmol/kg, ip dosed 30 mins before glucose challenge and measured up to 60 mins by ELISA; format: functional, organism-based; settings: time 90.0 min
Mus musculus [25] = assay: Reduction in HbA1c level in db/db mouse at 25 nmol/kg, sc administered once daily for 42 days by OGTT; format: functional, organism-based; settings: time 42.0 day
Mus musculus [26] = assay: Effect in normal chow diet fed C57BL/6 mouse assessed as reduction in body weight increase at 25 nmol/kg, sc administered once daily for 21 days (reference value: 10.8%); format: functional; design: scale not given: the % may be the effect or the level left; settings: time 21 day
Mus musculus [27] = assay: Reduction in body weight gain in db/db mouse at 25 nmol/kg, sc administered once daily for 21 days; format: functional, organism-based; settings: time 21.0 day
Mus musculus [28] = assay: Improvement in glucose tolerance in db/db mouse assessed as time for superior hypoglycemic effect by measuring glucose AUC at 25 nmol/kg, sc administered once daily for 42 days by OGTT; format: functional; settings: time 42 day
[29] = Tmax in Sprague-Dawley rat at 50 nmol/kg, sc measured up to 24 hrs by LC-MS/MS analysis; format: ADME, organism-based; settings: in vivo
Mus musculus [30] = assay: Hypoglycemic activity in non-fasted db/db mouse assessed as duration of time during which decrease in blood glucose concentration is observed at 25 nmol/kg, sc by OGTT method; format: functional
Mus musculus [31] = assay: Anorectic activity in C57BL/6 mouse model of diet induced obesity assessed as reduction in food intake at 25 nmol/kg, sc administered once daily for 21 days relative to control; format: functional, organism-based; settings: time 21.0 day
Mus musculus [32] = assay: Improvement in glucose tolerance in standard chow diet fed C57BL/6 mouse at 25 nmol/kg, sc administered once daily for 21 days; format: functional, organism-based; settings: time 21.0 day
Mus musculus [33] = assay: Anorectic effect in normal chow diet fed C57BL/6 mouse assessed as reduction in food intake at 25 nmol/kg, sc administered once daily for 21 days; format: functional, organism-based; settings: time 21.0 day
Mus musculus [34] = assay: Hypoglycemic activity in non-fasted db/db […] mouse assessed as reduction in blood glucose level at 25 nmol/kg, ip dosed 30 mins before glucose challenge measured up to 120 mins by OGTT method; format: functional, organism-based
Mus musculus [35] = assay: Inhibition of fat mass gain in normal chow diet fed C57BL/6 mouse at 25 nmol/kg, sc administered once daily for 21 days; format: functional, organism-based; settings: time 21.0 day
Albumin = Albumin (Homo sapiens, UniProt P02768); assay: Binding affinity to human serum albumin assessed as retention factor by HPAC method; format: ADME
Sequence of Albumin (P02768 whole entry): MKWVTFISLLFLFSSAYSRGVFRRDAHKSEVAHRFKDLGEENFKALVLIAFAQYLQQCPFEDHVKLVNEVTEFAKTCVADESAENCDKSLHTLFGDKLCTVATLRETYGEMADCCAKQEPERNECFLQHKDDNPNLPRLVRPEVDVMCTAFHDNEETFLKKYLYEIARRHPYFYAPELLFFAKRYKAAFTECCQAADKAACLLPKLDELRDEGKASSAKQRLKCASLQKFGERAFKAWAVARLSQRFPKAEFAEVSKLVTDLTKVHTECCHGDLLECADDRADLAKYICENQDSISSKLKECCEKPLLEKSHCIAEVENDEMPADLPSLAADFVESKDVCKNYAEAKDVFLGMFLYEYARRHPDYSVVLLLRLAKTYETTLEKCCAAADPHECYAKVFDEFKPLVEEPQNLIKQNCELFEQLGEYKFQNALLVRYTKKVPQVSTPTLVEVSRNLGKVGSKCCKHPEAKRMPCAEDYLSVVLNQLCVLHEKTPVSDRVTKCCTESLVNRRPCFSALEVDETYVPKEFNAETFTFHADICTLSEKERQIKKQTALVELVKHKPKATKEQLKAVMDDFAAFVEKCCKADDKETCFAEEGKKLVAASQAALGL

Mus musculus [36] = assay: Improvement in fasted blood glucose level in db/db mouse at 25 nmol/kg, sc administered once daily for 21 days; format: functional, organism-based; settings: time 21.0 day
[37] = Renal toxicity in ICR mouse assessed as effect on blood urea nitrogen level at 1000 nmol/kg, sc administered once daily for 2 weeks; format: organism-based; settings: in vivo, 336 h
Mus musculus [38] = assay: Hypoglycemic activity in 16 hrs fasted db/db mouse assessed as reduction in blood glucose level at 25 nmol/kg, ip treated 30 mins before glucose challenge and measured at 0 to 12 hrs by multiple OGTT; format: functional, organism-based; settings: time 750.0 min

CC[C@H](C)[C@H](NC(=O)[C@H](CC(C)C)NC(=O)[C@H](Cc1c[nH]c2ccccc12)NC(=O)[C@H](CCC(=O)O)NC(=O)[C@@H](NC(=O)[C@H](Cc1ccccc1)NC(=O)[C@H](CCC(=O)O)NC(=O)[C@H](CCCCNC(=O)CC[C@H](NC(=O)C(CCCCCCCCCNC(=O)COC(=O)C(C)(C)CCCOc1cc(C)ccc1C)NC(=O)COC(=O)C(C)(C)CCCOc1cc(C)ccc1C)C(=O)O)NC(=O)[C@H](C)NC(=O)[C@H](C)NC(=O)[C@H](CCC(=O)O)NC(=O)[C@H](CCC(=O)O)NC(=O)[C@H](CCC(=O)O)NC(=O)[C@H](CC(C)C)NC(=O)[C@H](Cc1ccc(O)cc1)NC(=O)[C@H](CCC(=O)O)NC(=O)[C@@H](NC(=O)[C@@H](NC(=O)[C@H](CC(=O)O)NC(=O)[C@H](CC(N)=O)NC(=O)[C@@H](NC(=O)[C@H](Cc1ccc(O)cc1)NC(=O)[C@@H](NC(=O)CNC(=O)[C@H](CCC(=O)O)NC(=O)CNC(=O)[C@@H](N)Cc1cnc[nH]1)[C@@H](C)O)[C@@H](C)O)C(C)C)[C@@H](C)O)[C@@H](C)CC)C(=O)N[C@@H](CCCCN)C(=O)NCC(=O)N[C@@H](CCCCN)C(=O)N1CCC[C@H]1C(=O)N[C@@H](CO)C(=O)N[C@@H](CO)C(=O)NCC(=O)N[C@@H](C)C(=O)N1CCC[C@H]1C(=O)N1CCC[C@H]1C(=O)N1CCC[C@H]1C(=O)N[C@@H](CO)C(=O)O (some centres undefined) (H-HGEGTYTNDVTEYLEEEAAK([γGlu-X1])EFIEWLIKGKPSSGAPPPS-OH)
Activity (Mus musculus [1]): Active
Activity [2]: Non-Toxic
Activity (Mus musculus [3]): Active
Activity (Mus musculus [4]): Dose-dependent effect
Activity (Mus musculus [5]): Active
half-life [6]: 7 h
Activity [7]: 48.3%
Activity (Mus musculus [8]): 15.4%
Activity (Mus musculus [9]): 29.8%
Activity [10]: Non-Toxic
Activity (Mus musculus [11]): Active
Activity (Mus musculus [12]): Active
Activity (Mus musculus [13]): inactive
Activity (Mus musculus [14]): Dose-dependent effect
Activity (Mus musculus [15]): Active
Activity (Mus musculus [16]): Active
Activity (Mus musculus [17]): Active
Activity (Mus musculus [18]): Active
Activity [19]: Non-Toxic
Activity (Mus musculus [20]): Active
EC50 [21]: 0.17 nM
half-life at 1000 ng/ml [22]: 37.6 h
Activity (Mus musculus [23]): Active
Activity (Mus musculus [24]): Active
Activity (Mus musculus [25]): Active
Activity (Mus musculus [26]): 4.5%
Activity (Mus musculus [27]): Active
Time (Mus musculus [28]): 84 days
Tmax [29]: 4 h
Time (Mus musculus [30]): 24 h
Activity (Mus musculus [31]): Active
Activity (Mus musculus [32]): inactive
Activity (Mus musculus [33]): Active
Activity (Mus musculus [34]): Active
Activity (Mus musculus [35]): Active
K (Albumin): 13.3
Activity (Mus musculus [36]): Active
Activity [37]: Non-Toxic
Activity (Mus musculus [38]): Active
